Experiments:
Assay in all cases: relative viability (nuclei count vs DMSO), 5 days (fraction); higher = more cells survive
[1] = compound: Cc1ccc(F)c(NC(=O)Nc2ccc(-c3cccc4[nH]nc(N)c34)cc2)c1 [Linifanib] + CC(=O)Nc1cccc(-n2c(=O)n(C3CC3)c(=O)c3c(Nc4ccc(I)cc4F)n(C)c(=O)c(C)c32)c1 [Trametinib] (partner 0.02 µM)
How it was run: (§1)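 Lung cancer cell lines in 1536-well plates were dosed by pin tool the day after seeding, either with one drug alone or with a fixed anchor-drug dose plus five library-drug doses (not always all listed) in √10 steps. After 5 days, cells were fixed and their nuclei stained in one step (final 0.05% Triton X-100, 1% formaldehyde, 1 ug/ml Hoechst), then counted on 4× images. Relative viability is the nuclei count in treated wells divided by that in vehicle wells. Values are medians of duplicate plates.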

[2] = compound: Cc1ccc(F)c(NC(=O)Nc2ccc(-c3cccc4[nH]nc(N)c34)cc2)c1 [Linifanib] + O=C(CCCCCCC(=O)Nc1ccccc1)NO [Vorinostat] (partner 1 µM)
How it was run: as §1

[3] = compound: Cc1ccc(F)c(NC(=O)Nc2ccc(-c3cccc4[nH]nc(N)c34)cc2)c1 [Linifanib] + Cc1nc(Nc2ncc(C(=O)Nc3c(C)cccc3Cl)s2)cc(N2CCN(CCO)CC2)n1 [Dasatinib] (partner 0.075 µM)
How it was run: as §1

[4] = compound: Cc1ccc(F)c(NC(=O)Nc2ccc(-c3cccc4[nH]nc(N)c34)cc2)c1 [Linifanib] + COc1cccc2cc(-c3nc([C@H]4CC[C@H](C(=O)O)CC4)n4ncnc(N)c34)[nH]c12 [OSI-027] (partner 0.5 µM)
How it was run: as §1

[5] = compound: Cc1ccc(F)c(NC(=O)Nc2ccc(-c3cccc4[nH]nc(N)c34)cc2)c1 [Linifanib] + Nc1ncn([C@H]2C[C@H](O)[C@@H](CO)O2)c(=O)n1 [Decitabine] (partner 2 µM)
How it was run: as §1

[6] = compound: Cc1ccc(F)c(NC(=O)Nc2ccc(-c3cccc4[nH]nc(N)c34)cc2)c1 [Linifanib] + CS(=O)(=O)CCNCc1ccc(-c2ccc3ncnc(Nc4ccc(OCc5cccc(F)c5)c(Cl)c4)c3c2)o1 [Lapatinib] (partner 2 µM)
How it was run: as §1

## EMC-BAC-2
[1]; first compound 0.03162 µM
  relative viability: 1.01
[1]; first compound 0.1 µM
  relative viability: 0.993
[1]; first compound 0.3162 µM
  relative viability: 0.875
[2]; first compound 0.03162 µM
  relative viability: 0.47
[2]; first compound 0.1 µM
  relative viability: 0.465
[2]; first compound 0.3162 µM
  relative viability: 0.426
[3]; first compound 0.03162 µM
  relative viability: 0.341
[3]; first compound 0.1 µM
  relative viability: 0.347
[3]; first compound 0.3162 µM
  relative viability: 0.406
[4]; first compound 0.03162 µM
  relative viability: 0.439
[4]; first compound 0.1 µM
  relative viability: 0.361
[4]; first compound 0.3162 µM
  relative viability: 0.375
[5]; first compound 0.03162 µM
  relative viability: 1.01
[5]; first compound 0.1 µM
  relative viability: 1.03
[5]; first compound 0.3162 µM
  relative viability: 0.951
[6]; first compound 0.03162 µM
  relative viability: 0.901
[6]; first compound 0.1 µM
  relative viability: 0.992
[6]; first compound 0.3162 µM
  relative viability: 0.844

## EPLC-272H
[1]; first compound 0.03162 µM
  relative viability: 0.254
[1]; first compound 0.1 µM
  relative viability: 0.292
[1]; first compound 0.3162 µM
  relative viability: 0.274
[2]; first compound 0.03162 µM
  relative viability: 0.522
[2]; first compound 0.1 µM
  relative viability: 0.467
[2]; first compound 0.3162 µM
  relative viability: 0.513
[3]; first compound 0.03162 µM
  relative viability: 0.324
[3]; first compound 0.1 µM
  relative viability: 0.418
[3]; first compound 0.3162 µM
  relative viability: 0.51
[4]; first compound 0.03162 µM
  relative viability: 0.26
[4]; first compound 0.1 µM
  relative viability: 0.327
[4]; first compound 0.3162 µM
  relative viability: 0.29
[5]; first compound 0.03162 µM
  relative viability: 0.352
[5]; first compound 0.1 µM
  relative viability: 0.435
[5]; first compound 0.3162 µM
  relative viability: 0.362
[6]; first compound 0.03162 µM
  relative viability: 0.956
[6]; first compound 0.1 µM
  relative viability: 0.913
[6]; first compound 0.3162 µM
  relative viability: 0.814

## H3255
[1]; first compound 0.03162 µM
  relative viability: 0.629
[1]; first compound 0.1 µM
  relative viability: 0.698
[1]; first compound 0.3162 µM
  relative viability: 0.554
[2]; first compound 0.03162 µM
  relative viability: 0.788
[2]; first compound 0.1 µM
  relative viability: 0.795
[2]; first compound 0.3162 µM
  relative viability: 0.812
[3]; first compound 0.03162 µM
  relative viability: 0.457
[3]; first compound 0.1 µM
  relative viability: 0.364
[3]; first compound 0.3162 µM
  relative viability: 0.364
[4]; first compound 0.03162 µM
  relative viability: 0.58
[4]; first compound 0.1 µM
  relative viability: 0.606
[4]; first compound 0.3162 µM
  relative viability: 0.583
[5]; first compound 0.03162 µM
  relative viability: 0.559
[5]; first compound 0.1 µM
  relative viability: 0.667
[5]; first compound 0.3162 µM
  relative viability: 0.615
[6]; first compound 0.03162 µM
  relative viability: 0.246
[6]; first compound 0.1 µM
  relative viability: 0.508
[6]; first compound 0.3162 µM
  relative viability: 0.242

## HARA
[1]; first compound 0.03162 µM
  relative viability: 0.813
[1]; first compound 0.1 µM
  relative viability: 0.809
[1]; first compound 0.3162 µM
  relative viability: 0.591
[2]; first compound 0.03162 µM
  relative viability: 0.598
[2]; first compound 0.1 µM
  relative viability: 0.479
[2]; first compound 0.3162 µM
  relative viability: 0.579
[3]; first compound 0.03162 µM
  relative viability: 0.234
[3]; first compound 0.1 µM
  relative viability: 0.335
[3]; first compound 0.3162 µM
  relative viability: 0.285
[4]; first compound 0.03162 µM
  relative viability: 0.569
[4]; first compound 0.1 µM
  relative viability: 0.571
[4]; first compound 0.3162 µM
  relative viability: 0.498
[5]; first compound 0.03162 µM
  relative viability: 0.599
[5]; first compound 0.1 µM
  relative viability: 0.61
[5]; first compound 0.3162 µM
  relative viability: 0.61
[6]; first compound 0.03162 µM
  relative viability: 0.815
[6]; first compound 0.1 µM
  relative viability: 0.905
[6]; first compound 0.3162 µM
  relative viability: 0.73

## HCC-15
[1]; first compound 0.03162 µM
  relative viability: 0.346
[1]; first compound 0.1 µM
  relative viability: 0.409
[1]; first compound 0.3162 µM
  relative viability: 0.365
[2]; first compound 0.03162 µM
  relative viability: 0.796
[2]; first compound 0.1 µM
  relative viability: 0.838
[2]; first compound 0.3162 µM
  relative viability: 0.792
[3]; first compound 0.03162 µM
  relative viability: 0.635
[3]; first compound 0.1 µM
  relative viability: 0.709
[3]; first compound 0.3162 µM
  relative viability: 0.725
[4]; first compound 0.03162 µM
  relative viability: 0.735
[4]; first compound 0.1 µM
  relative viability: 0.795
[4]; first compound 0.3162 µM
  relative viability: 0.7
[5]; first compound 0.03162 µM
  relative viability: 0.745
[5]; first compound 0.1 µM
  relative viability: 0.693
[5]; first compound 0.3162 µM
  relative viability: 0.629
[6]; first compound 0.03162 µM
  relative viability: 0.841
[6]; first compound 0.1 µM
  relative viability: 0.839
[6]; first compound 0.3162 µM
  relative viability: 0.853

## HCC-44
[1]; first compound 0.03162 µM
  relative viability: 1.05
[1]; first compound 0.1 µM
  relative viability: 1.07
[1]; first compound 0.3162 µM
  relative viability: 1.03
[2]; first compound 0.03162 µM
  relative viability: 1.22
[2]; first compound 0.1 µM
  relative viability: 1.04
[2]; first compound 0.3162 µM
  relative viability: 1.14
[4]; first compound 0.03162 µM
  relative viability: 0.62
[4]; first compound 0.1 µM
  relative viability: 0.596
[4]; first compound 0.3162 µM
  relative viability: 0.478
[5]; first compound 0.03162 µM
  relative viability: 0.984
[5]; first compound 0.1 µM
  relative viability: 0.862
[5]; first compound 0.3162 µM
  relative viability: 0.961
[6]; first compound 0.03162 µM
  relative viability: 1.04
[6]; first compound 0.1 µM
  relative viability: 1
[6]; first compound 0.3162 µM
  relative viability: 0.989

## HCC-78
[1]; first compound 0.03162 µM
  relative viability: 0.657
[1]; first compound 0.1 µM
  relative viability: 0.692
[1]; first compound 0.3162 µM
  relative viability: 0.805
[2]; first compound 0.03162 µM
  relative viability: 0.419
[2]; first compound 0.1 µM
  relative viability: 0.427
[2]; first compound 0.3162 µM
  relative viability: 0.455
[3]; first compound 0.03162 µM
  relative viability: 0.441
[3]; first compound 0.1 µM
  relative viability: 0.539
[3]; first compound 0.3162 µM
  relative viability: 0.37
[4]; first compound 0.03162 µM
  relative viability: 0.391
[4]; first compound 0.1 µM
  relative viability: 0.396
[4]; first compound 0.3162 µM
  relative viability: 0.344
[5]; first compound 0.03162 µM
  relative viability: 0.784
[5]; first compound 0.1 µM
  relative viability: 0.752
[5]; first compound 0.3162 µM
  relative viability: 0.717
[6]; first compound 0.03162 µM
  relative viability: 1.23
[6]; first compound 0.1 µM
  relative viability: 0.976
[6]; first compound 0.3162 µM
  relative viability: 0.674

## HCC-366
[1]; first compound 0.03162 µM
  relative viability: 0.4
[1]; first compound 0.1 µM
  relative viability: 0.391
[1]; first compound 0.3162 µM
  relative viability: 0.399
[2]; first compound 0.03162 µM
  relative viability: 0.371
[2]; first compound 0.1 µM
  relative viability: 0.378
[2]; first compound 0.3162 µM
  relative viability: 0.359
[3]; first compound 0.03162 µM
  relative viability: 0.554
[3]; first compound 0.1 µM
  relative viability: 0.648
[3]; first compound 0.3162 µM
  relative viability: 0.582
[4]; first compound 0.03162 µM
  relative viability: 0.898
[4]; first compound 0.1 µM
  relative viability: 1.29
[4]; first compound 0.3162 µM
  relative viability: 0.795
[5]; first compound 0.03162 µM
  relative viability: 0.417
[5]; first compound 0.1 µM
  relative viability: 0.328
[5]; first compound 0.3162 µM
  relative viability: 0.336
[6]; first compound 0.03162 µM
  relative viability: 1.02
[6]; first compound 0.1 µM
  relative viability: 1.12
[6]; first compound 0.3162 µM
  relative viability: 0.895

## HCC-827
[1]; first compound 0.03162 µM
  relative viability: 0.559
[1]; first compound 0.1 µM
  relative viability: 0.522
[1]; first compound 0.3162 µM
  relative viability: 0.514
[2]; first compound 0.03162 µM
  relative viability: 0.792
[2]; first compound 0.1 µM
  relative viability: 0.814
[2]; first compound 0.3162 µM
  relative viability: 0.802
[3]; first compound 0.03162 µM
  relative viability: 0.272
[3]; first compound 0.1 µM
  relative viability: 0.32
[3]; first compound 0.3162 µM
  relative viability: 0.268
[4]; first compound 0.03162 µM
  relative viability: 0.82
[4]; first compound 0.1 µM
  relative viability: 0.93
[4]; first compound 0.3162 µM
  relative viability: 0.716
[5]; first compound 0.03162 µM
  relative viability: 0.32
[5]; first compound 0.1 µM
  relative viability: 0.31
[5]; first compound 0.3162 µM
  relative viability: 0.331
[6]; first compound 0.03162 µM
  relative viability: 0.19
[6]; first compound 0.1 µM
  relative viability: 0.173
[6]; first compound 0.3162 µM
  relative viability: 0.191

Source: the supplement of paper PMC10307832
